According to patent publication US20260085094A1, “STAPLED PEPTIDE AND USE THEREOF” (priority 2021, published 2026):

Columns and labels:
in vivo [1] = experiment: in vivo; parameters: species or system C57BL/6 mice; conditions: sc, 0.048 mg/kg
Experimental: (§1) To test the in vivo pharmacokinetics of the polypeptides of the present disclosure in C57BL/6 mice. The pharmacokinetic characteristics of the polypeptides of the present disclosure after intravenous injection and subcutaneous injection in rodents were tested according to SOP. In the experiment, the polypeptide was prepared into a clear solution, which was administered to mice by single subcutaneous injection (SC, 0.048 mpk). The vehicle for subcutaneous injection was citrate buffer (20 mM, pH=7). The whole blood was collected and prepared to obtain the plasma. The drug concentration was analyzed by LC-MS/MS method, and the pharmacokinetic parameters were calculated using Phoenix WinNonlin software.

in vivo [2] = experiment: in vivo; parameters: species or system SD rats; conditions: rat, sc, 0.048 mg/kg
Experimental: as §1, with “SD rats.” for “C57BL/6 mice.”, “after” for “after intravenous injection and”, “rats” for “mice”, “for” for “for subcutaneous”

in vivo [3] = experiment: in vivo; parameters: species or system cynomolgus macaques; conditions: cynomolgus monkey, sc, 0.02 mg/kg
Experimental: as §1, with “cynomolgus macaques.” for “C57BL/6 mice.”, “mammals” for “rodents”, “cynomolgus macaques” for “mice”, “0.02” for “0.048”

GIPR = molecular target: T1, GIPR (Homo sapiens, UniProt P48546); experiment: In vitro GIPR agonistic activity test (cAMP assay); type: cell-based; conditions: GIPR CHO cell line, read-out: GIP-1 EC50
T1 construct: host or cells: CHO
T1 sequence (P48546 22-466): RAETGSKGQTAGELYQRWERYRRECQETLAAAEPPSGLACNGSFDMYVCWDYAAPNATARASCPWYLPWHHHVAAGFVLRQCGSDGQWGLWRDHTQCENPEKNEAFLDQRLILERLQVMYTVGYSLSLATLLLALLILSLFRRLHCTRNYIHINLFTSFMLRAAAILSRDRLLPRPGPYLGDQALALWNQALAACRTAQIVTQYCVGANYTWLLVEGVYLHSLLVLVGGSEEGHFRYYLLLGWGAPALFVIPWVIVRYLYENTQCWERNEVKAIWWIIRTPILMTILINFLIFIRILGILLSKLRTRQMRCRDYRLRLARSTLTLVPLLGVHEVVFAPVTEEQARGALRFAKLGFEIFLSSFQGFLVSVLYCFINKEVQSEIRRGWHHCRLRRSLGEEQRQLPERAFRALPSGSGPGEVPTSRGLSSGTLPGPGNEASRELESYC
Experimental: (§2) [table] The compounds to be tested were diluted 4-fold at 10 wells, starting from an initial concentration of 30 μM. […] The TopSeal-A film was removed, and readout was performed on EnVision.

GCGR = molecular target: T2, GCGR (Homo sapiens, UniProt P47871); experiment: In vitro GCGR agonistic activity test (cAMP assay); type: cell-based; conditions: GCGR HEK293 cell line, read-out: GCG EC50
T2 construct: host or cells: HEK293
Experimental: as §2

GLP-1R = molecular target: T3, GLP-1R (Homo sapiens, UniProt P43220); experiment: In vitro GLP-1R agonistic activity test (cAMP assay); type: cell-based; conditions: GLP-1R HEK293 cell line
T3 construct: host or cells: HEK293
Experimental: as §2

T2 sequence (P47871 26-477, species assumed): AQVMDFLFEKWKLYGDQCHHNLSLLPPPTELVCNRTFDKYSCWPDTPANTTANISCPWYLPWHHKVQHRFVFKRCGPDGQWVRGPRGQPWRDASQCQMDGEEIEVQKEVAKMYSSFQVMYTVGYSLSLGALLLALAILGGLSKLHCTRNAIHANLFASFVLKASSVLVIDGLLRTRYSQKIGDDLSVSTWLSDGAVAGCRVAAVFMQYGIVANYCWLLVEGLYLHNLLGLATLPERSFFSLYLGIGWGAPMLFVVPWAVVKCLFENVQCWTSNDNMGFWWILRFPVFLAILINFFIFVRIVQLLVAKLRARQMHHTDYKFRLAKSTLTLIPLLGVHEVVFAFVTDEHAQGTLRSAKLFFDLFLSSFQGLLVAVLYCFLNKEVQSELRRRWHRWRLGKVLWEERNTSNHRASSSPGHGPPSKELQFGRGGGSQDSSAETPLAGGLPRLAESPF
T3 sequence (P43220 24-463, species assumed): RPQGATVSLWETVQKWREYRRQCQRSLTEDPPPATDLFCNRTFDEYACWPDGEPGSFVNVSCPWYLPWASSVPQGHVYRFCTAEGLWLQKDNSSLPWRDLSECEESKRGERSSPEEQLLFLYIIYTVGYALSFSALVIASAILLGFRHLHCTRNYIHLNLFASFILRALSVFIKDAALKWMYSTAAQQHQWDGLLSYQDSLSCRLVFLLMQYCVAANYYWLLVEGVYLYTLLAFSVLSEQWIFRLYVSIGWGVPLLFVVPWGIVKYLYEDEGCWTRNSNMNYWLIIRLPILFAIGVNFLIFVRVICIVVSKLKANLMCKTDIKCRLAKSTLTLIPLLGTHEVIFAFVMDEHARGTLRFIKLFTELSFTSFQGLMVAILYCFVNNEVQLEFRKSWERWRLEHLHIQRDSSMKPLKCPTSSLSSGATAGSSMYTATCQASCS

| AUC(0-t) (in vivo [1]; C57BL/6, mouse) | Cmax (in vivo [1]; C57BL/6, mouse) | Tmax (in vivo [1]; C57BL/6, mouse) | half-life (in vivo [1]; C57BL/6, mouse) | AUC(0-t) (in vivo [2]; SD) | Cmax (in vivo [2]; SD) | Tmax (in vivo [2]; SD) | half-life (in vivo [2]; SD) | AUC(0-t) (in vivo [3]) | Cmax (in vivo [3]) | Tmax (in vivo [3]) | half-life (in vivo [3]) | EC50 (GIPR) | EC50 (GCGR) | EC50 (GLP-1R) | Compound | further results |
| --- | --- | --- | --- | --- | --- | --- | --- | --- | --- | --- | --- | --- | --- | --- | --- | --- |
| 2.13 µM·h | 72 nM | 12 h | 15 h | 1.21 µM·h | 26 nM | 28 h | 23 h | 5.81 µM·h | 43 nM | 48 h | 100 h | 0.14 nM | 1.4 nM | 0.063 nM | CC[C@H](C)[C@H](NC(=O)[C@H](Cc1ccccc1)NC(=O)[C@H](C)NC(=O)C(C)(C)NC(=O)[C@H](CCC(N)=O)NC(=O)[C@H](C)NC(=O)[C@H](CCCCN)NC(=O)[C@H](CCCCN)NC(=O)[C@H](CC(=O)O)NC(=O)[C@H](CC(C)C)NC(=O)[C@](C)(CC(C)C)NC(=O)[C@@H](NC(=O)[C@H](CO)NC(=O)[C@H](Cc1ccc(O)cc1)NC(=O)[C@H](CC(=O)O)NC(=O)[C@H](CO)NC(=O)[C@@H](NC(=O)[C@H](Cc1ccccc1)NC(=O)[C@@H](NC(=O)CNC(=O)[C@H](CCC(N)=O)NC(=O)C(C)(C)NC(=O)[C@@H](N)Cc1ccc(O)cc1)[C@@H](C)O)[C@@H](C)O)[C@@H](C)CC)C(=O)N[C@@H](CCC(=O)O)C(=O)N[C@H]1CCCCNC(=O)CN(C(=O)COCCOCCNC(=O)COCCOCCNC(=O)CC[C@H](NC(=O)CCCCCCCCCCCCCCCCCCC(=O)O)C(=O)O)CC(=O)NCCCC[C@@H](C(=O)NCC(=O)NCC(=O)N2CCC[C@H]2C(=O)N[C@@H](CO)C(=O)N[C@@H](CO)C(=O)NCC(=O)N[C@@H](C)C(=O)N2CCC[C@H]2C(=O)N2CCC[C@H]2C(=O)N2CCC[C@H]2C(=O)N[C@@H](CO)C(N)=O)NC(=O)[C@H](CC(C)C)NC(=O)[C@H](CC(C)C)NC1=O [WX005] |  |
|  | 69 nM |  |  |  | 30 nM |  |  | 5.1 µM·h | 54 nM | 24 h | 52 h |  |  |  | CC[C@H](C)[C@H](NC(=O)[C@H](Cc1ccccc1)NC(=O)[C@H](C)NC(=O)C(C)(C)NC(=O)[C@@H]1CCCCNC(=O)CN(C(=O)COCCOCCNC(=O)COCCOCCNC(=O)CC[C@H](NC(=O)CCCCCCCCCCCCCCCCCCC(=O)O)C(=O)O)CC(=O)NCCCC[C@H](NC(=O)[C@H](CC(=O)O)NC(=O)[C@H](CC(C)C)NC(=O)[C@](C)(CC(C)C)NC(=O)[C@@H](NC(=O)[C@H](CO)NC(=O)[C@H](Cc2ccc(O)cc2)NC(=O)[C@H](CC(=O)O)NC(=O)[C@H](CO)NC(=O)[C@@H](NC(=O)[C@H](Cc2ccccc2)NC(=O)[C@@H](NC(=O)CNC(=O)[C@H](CCC(N)=O)NC(=O)C(C)(C)NC(=O)[C@@H](N)Cc2ccc(O)cc2)[C@@H](C)O)[C@@H](C)O)[C@@H](C)CC)C(=O)N[C@@H](CCCCN)C(=O)N[C@@H](C)C(=O)N1)C(=O)N[C@@H](CCC(=O)O)C(=O)N[C@@H](Cc1ccc(O)cc1)C(=O)N[C@@H](CC(C)C)C(=O)N[C@@H](CC(C)C)C(=O)N[C@@H](CCC(=O)O)C(=O)NCC(=O)NCC(=O)N1CCC[C@H]1C(=O)N[C@@H](CO)C(=O)N[C@@H](CO)C(=O)NCC(=O)N[C@@H](C)C(=O)N1CCC[C@H]1C(=O)N1CCC[C@H]1C(=O)N1CCC[C@H]1C(=O)N[C@@H](CO)C(N)=O [WX002] | AUC(0-t) (in vivo [1]; mouse): 2.01 µM·h; Tmax (in vivo [1]; mouse): 8 h; half-life (in vivo [1]; mouse): 10 h; AUC(0-t) (in vivo [2]): 1.06 µM·h; Tmax (in vivo [2]): 20 h; half-life (in vivo [2]): 14 h |
| 1.83 µM·h | 58 nM | 12 h | 16 h | 0.718 µM·h | 17 nM | 24 h | 25 h | 5.29 µM·h | 49 nM | 32 h | 61 h | 0.13 nM | 0.55 nM | 0.072 nM | CC[C@H](C)[C@H](NC(=O)[C@H](Cc1ccccc1)NC(=O)[C@H](C)NC(=O)[C@@H]1CCCCNC(=O)CN(C(=O)COCCOCCNC(=O)COCCOCCNC(=O)CC[C@H](NC(=O)CCCCCCCCCCCCCCCCCCC(=O)O)C(=O)O)CC(=O)NCCCC[C@H](NC(=O)[C@H](CCCCN)NC(=O)[C@H](CC(=O)O)NC(=O)[C@H](CC(C)C)NC(=O)[C@](C)(CC(C)C)NC(=O)[C@@H](NC(=O)[C@H](CO)NC(=O)[C@H](Cc2ccc(O)cc2)NC(=O)[C@H](CC(=O)O)NC(=O)[C@H](CO)NC(=O)[C@@H](NC(=O)[C@H](Cc2ccccc2)NC(=O)[C@@H](NC(=O)CNC(=O)[C@H](CCC(N)=O)NC(=O)C(C)(C)NC(=O)[C@@H](N)Cc2ccc(O)cc2)[C@@H](C)O)[C@@H](C)O)[C@@H](C)CC)C(=O)N[C@@H](C)C(=O)N[C@@H](CCC(N)=O)C(=O)N1)C(=O)N[C@@H](CCC(=O)O)C(=O)N[C@@H](Cc1ccc(O)cc1)C(=O)N[C@@H](CC(C)C)C(=O)N[C@@H](CC(C)C)C(=O)N[C@@H](CCC(=O)O)C(=O)NCC(=O)NCC(=O)N1CCC[C@H]1C(=O)N[C@@H](CO)C(=O)N[C@@H](CO)C(=O)NCC(=O)N[C@@H](C)C(=O)N1CCC[C@H]1C(=O)N1CCC[C@H]1C(=O)N1CCC[C@H]1C(=O)N[C@@H](CO)C(N)=O [WX001] |  |
